pIC50: −log10 of the molar value.
What was measured:
[1] = molecular target: T1, HCV polymerase (NS5B) type 1a (Hepatitis C virus genotype 1a, UniProt P26664); experiment: Assay of enzyme (HCV polymerase) inhibitory activity, type 1a enzyme; type: biochemical, HCV type 1a (cloned from the blood of patients)
T1 construct: made in house; host or cells: Escherichia coli (by the 'similar method' of the 1b enzyme)
Procedure, shortened: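 IC50 values derive from radioactivity of newly synthesized RNA with versus without test compound. The enzyme was C-terminally truncated type 1a NS5B, 1.5 μg/ml, run 60 min at 25° C with 3H-UTP-labelled nucleotides.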

[2] = molecular target: T2, HCV polymerase (NS5B) type 1b (Hepatitis C virus genotype 1b, UniProt P26663); experiment: Assay of enzyme (HCV polymerase) inhibitory activity, type 1b enzyme; type: biochemical, HCV BK strain (type 1b)
T2 construct: a region encoding NS5B (J Virol 1991 March, 65(3), 1105-13, 544 amino acids after deletion of 47 amino acids on the C-terminal); 6xHis (C); made in house; host or cells: Escherichia coli
Procedure, shortened: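 Polymerase activity was followed as radiolabelled UTP incorporation by E. coli-expressed, His-tagged NS5B of HCV type 1b lacking its last 47 residues. Conditions: 2 μM UTP, 50 μM other NTPs, Mg2+ buffer at pH 7.5, 25 °C for 60 min. Inhibition relative to compound-free reactions gave IC50.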

[3] = HCV polymerase inhibitory activity (IC50), 1a, type 1a enzyme 1.5 μg/ml, 25° C., 60 min
[4] = HCV polymerase inhibitory activity (IC50), 1b, type 1b enzyme 0.5 μg/ml, 25° C., 60 min
[5] = HCV polymerase inhibitory activity IC50, 1a, type 1a enzyme
[6] = HCV polymerase inhibitory activity IC50, 1b, type 1b enzyme

| Structure (SMILES) | pIC50 [1, 3] | pIC50 [2, 4] | pIC50 [1, 5] | pIC50 [2, 6] |
| --- | --- | --- | --- | --- |
| CCCc1ccc(CNC(=O)[C@H]2CN(c3cnc(C(=O)O)cn3)CCN2S(=O)(=O)c2ccc(OC(F)(F)F)cc2)cc1 [Example 374, (R)-3-(4-propyl-benzylcarbamoyl)-4-(4-trifluoromethoxy-benzenesulfonyl)-3,4,5,6-tetrahydro-2H-[1,2′]bipyrazinyl-5′-carboxylic acid] | > 7.00 | > 7.00 | – | – |
| O=C(NCc1ccc(OC(F)(F)F)cc1)[C@H]1CN(c2nc3nn[nH]c(=O)c3s2)CCN1S(=O)(=O)c1ccc(OC(F)(F)F)cc1 [Example 785, (R)-4-(4-oxo-3,4-dihydro-thiazolo[4,5-d][1,2,3]triazin-6-yl)-1-(4-trifluoromethoxy-benzenesulfonyl)-piperazine-2-carboxylic acid 4-trifluoromethoxy-benzylamide] | – | – | > 7.00 | > 7.00 |
| CCCc1ccc(CNC(=O)[C@H]2CN(C(=O)Nc3ccccc3OCc3ccccc3)CCN2S(=O)(=O)c2ccc(OC(F)(F)F)cc2)cc1 [Example 833, (R)-4-(4-trifluoromethoxy-benzenesulfonyl)-piperazine-1,3-dicarboxylic acid 1-[(2-benzyloxy-phenyl)-amide] 3-(4-propyl-benzylamide)] | – | – | < 6.00 | < 6.00 |
| COc1cccc(S(=O)(=O)N2CCN(C(C)=O)CC2C(=O)NCc2ccc(C(F)(F)F)cc2)c1 (stereo not drawn) [Example 71, 4-acetyl-1-(3-methoxy-benzenesulfonyl)-piperazine-2-carboxylic acid 4-trifluoromethyl-benzylamide] | < 6.00 | < 6.00 | – | – |
| Cc1nc(N2CCN(S(=O)(=O)c3ccc(OC(F)(F)F)cc3)[C@@H](C(=O)NCc3ccc(C(C)C)cc3)C2)sc1C(=O)NCC(=O)OC(C)(C)C [Example 358, ({2-[(R)-3-(4-isopropyl-benzylcarbamoyl)-4-(4-trifluoromethoxy-benzenesulfonyl)-piperazin-1-yl]-4-methyl-thiazole-5-carbonyl}-amino)-acetic acid tert-butyl ester] | > 7.00 | > 7.00 | – | – |
| O=C(CC(=O)N1CCN(S(=O)(=O)c2ccc(OC(F)(F)F)cc2)[C@@H](C(=O)NCc2ccc(OC(F)(F)F)cc2)C1)Nc1nnc(Br)s1 [Example 988, (R)-4-[2-(5-bromo-[1,3,4]thiadiazol-2-ylcarbamoyl)-acetyl]-1-(4-trifluoromethoxy-benzenesulfonyl)-piperazine-2-carboxylic acid 4-trifluoromethoxy-benzylamide] | – | – | < 6.00 | < 6.00 |
| CCC(F)(F)c1ccc(CNC(=O)[C@H]2CN(C(=O)Nc3nnc(CO)s3)CCN2S(=O)(=O)c2ccc(OC(F)(F)F)cc2)cc1 [Example 482, (R)-4-(4-trifluoromethoxy-benzenesulfonyl)-piperazine-1,3-dicarboxylic acid 3-[4-(1,1-difluoro-propyl)-benzylamide] 1-[(5-hydroxymethyl-[1,3,4]thiadiazol-2-yl)-amide]] | 6.00 to 7.00 | > 7.00 | – | – |
| CCCC(CCC)c1ccc(CNC(=O)C2CN(C(C)=O)CCN2S(=O)(=O)c2ccc(C(C)C)cc2)cc1 (stereo not drawn) [Example 140, 4-acetyl-1-(4-isopropyl-benzenesulfonyl)-piperazine-2-carboxylic acid 4-(1-propyl-butyl)-benzylamide] | < 6.00 | < 6.00 | – | – |
| COc1ccccc1CCNC(=O)[C@H]1CN(C(C)=O)CCN1S(=O)(=O)c1ccc(OC(F)(F)F)cc1 [Example 671, (R)-4-acetyl-1-(4-trifluoromethoxy-benzenesulfonyl)-piperazine-2-carboxylic acid [2-(2-methoxy-phenyl)-ethyl]-amide] | – | – | < 6.00 | < 6.00 |
| O=C(NCc1ccc(OC(F)F)cc1)[C@H]1CN(c2nn3ccc(=O)nc3s2)CCN1S(=O)(=O)c1ccc(OC(F)F)cc1 [Example 1063, (R)-1-(4-difluoromethoxy-benzenesulfonyl)-4-(7-oxo-7H-[1,3,4]thiadiazolo[3,2-a]pyrimidin-2-yl)-piperazine-2-carboxylic acid 4-difluoromethoxy-benzylamide] | – | – | > 7.00 | > 7.00 |
| CCCc1ccc(CNC(=O)[C@H]2CN(c3nc(C)c(C(=O)NS(C)(=O)=O)s3)CCN2S(=O)(=O)c2ccc(OC(F)(F)F)cc2)cc1 [Example 447, (R)-4-(5-methanesulfonylaminocarbonyl-4-methyl-thiazol-2-yl)-1-(4-trifluoromethoxy-benzenesulfonyl)-piperazine-2-carboxylic acid 4-propyl-benzylamide] | 6.00 to 7.00 | > 7.00 | – | – |
| Cc1cc(=O)nc2sc(N3CCN(S(=O)(=O)c4ccc(OC(F)(F)F)cc4)[C@@H](C(=O)NCc4ccc(OC(F)F)cc4)C3)nn12 [Example 1027, (R)-4-(5-methyl-7-oxo-7H-[1,3,4]thiadiazolo[3,2-a]pyrimidin-2-yl)-1-(4-trifluoromethoxy-benzenesulfonyl)-piperazine-2-carboxylic acid 4-difluoromethoxy-benzylamide] | – | – | > 7.00 | > 7.00 |
| CSc1ccc(CNC(=O)[C@H]2CN(C(C)=O)CCN2S(=O)(=O)c2ccc(C(C)C)cc2)cc1 [Example 227, (R)-4-acetyl-1-(4-isopropyl-benzenesulfonyl)-piperazine-2-carboxylic acid 4-methylsulfanyl-benzylamide] | 6.00 to 7.00 | 6.00 to 7.00 | – | – |
| O=C(NCc1ccc(OC(F)(F)F)cc1)[C@H]1CN(c2nc3nc(C4(O)CC4)ncc3s2)CCN1S(=O)(=O)c1ccc(OC(F)(F)F)cc1 [Example 1080, (R)-4-[5-(1-hydroxy-cyclopropyl)-thiazolo[4,5-d]pyrimidin-2-yl]-1-(4-trifluoromethoxy-benzenesulfonyl)-piperazine-2-carboxylic acid 4-trifluoromethoxy-benzylamide] | – | – | > 7.00 | > 7.00 |
| CCC(F)(F)c1ccc(CNC(=O)[C@H]2CN(c3cnc4cncnc4n3)CCN2S(=O)(=O)c2ccc(-c3ccccc3OCC(=O)O)cc2)cc1 [Example 731, (4′-{(R)-2-[4-(1,1-difluoro-propyl)-benzylcarbamoyl]-4-pteridin-7-yl-piperazine-1-sulfonyl}-biphenyl-2-yloxy)-acetic acid] | – | – | > 7.00 | > 7.00 |
| CC(=O)N1CCN(S(=O)(=O)c2ccc(C(C)C)cc2)C(C(=O)NCc2ccc(C3CCCC3)cc2)C1 (stereo not drawn) [Example 139, 4-acetyl-1-(4-isopropyl-benzenesulfonyl)-piperazine-2-carboxylic acid 4-cyclopentyl-benzylamide] | 6.00 to 7.00 | 6.00 to 7.00 | – | – |
| Cc1nc(C(N)=O)c2sc(N3CCN(S(=O)(=O)c4ccc(OC(F)(F)F)cc4)[C@@H](C(=O)NCc4ccc(OC(F)(F)F)cc4)C3)nc2n1 [Example 1029, 5-methyl-2-[(R)-4-(4-trifluoromethoxy-benzenesulfonyl)-3-(4-trifluoromethoxy-benzylcarbamoyl)-piperazin-1-yl]-thiazolo[4,5-d]pyrimidine-7-carboxylic acid amide] | – | – | 6.00 to 7.00 | > 7.00 |
| COC(=O)C(C)(C)c1ccc(CNC(=O)[C@H]2CN(C(C)=O)CCN2S(=O)(=O)c2ccc(C(C)C)cc2)cc1 [Example 223, 2-[4-({[(R)-4-acetyl-1-(4-isopropyl-benzenesulfonyl)-piperazine-2-carbonyl]-amino}-methyl)-phenyl]-2-methyl-propionic acid methyl ester] | 6.00 to 7.00 | 6.00 to 7.00 | – | – |
